Test results published in patent publication US11980626B2, “Compositions for treatment of breast and prostate cancer” (Kembi Therapeutics Pty Ltd, priority 2017, dated 2024).

Columns and labels:
[1] = system: CYP17; assay: Endocrine profile (steroid hormone changes) in prostate cancer patients; type: in vivo, human; details: seviteronel 600 mg once daily, FIG. 7
Description: (§1) Males that fulfill the Inclusion Criteria captured in Table 1 were administered seviteronel (600 mg; 4×150 mg tablets) once daily until any of the criteria in Table 2 are met. Table 3 captures the clinical screening data and screening schedule for the various screens for each of the male subjects.
as §1, with “tablets) and dexamethasone (0.5 mg)” for “tablets)”
(§2) Blood samples were collected for evaluation of steroid hormone changes as a pharmacodynamics indicator of CYP17 inhibition over time e.g., DHEA, DHEA-S, androstenedione, testosterone, cortisol, corticosterone, progesterone, pregnenolone, estradiol, estrone and ACTH).

[2] = system: CYP17; assay: Progesterone response in ER+ breast cancer patients; type: in vivo, human; details: vs. patients treated with abiraterone and prednisone (Abi/Pred), FIG. 20
Description: as §1, with “Subjects” for “Males”, “4” for “1”, “mg for male subjects,” for “mg;”, “4×150 mg tablets; 450 mg for female subjects, 3×150” for “4×150”, “5” for “3”
Subjects that fulfill the Inclusion Criteria captured in Table 4 were administered seviteronel (600 mg for male subjects, 4×150 mg tablets; 450 mg for female subjects, 3×150 mg tablets) and dexamethasone (0.5 mg) once daily until any of the criteria in Table 2 are met. Table 5 captures the clinical screening data and screening schedule for the various screens for each of the male subjects.
as §2

CC(C)C(O)(c1ccc2cc(OC(F)F)c(OC(F)F)cc2c1)c1c[nH]nn1 (centres unmarked) [SEVI, 1-(6,7-Bis(difluoromethoxy)naphthalen-2-yl)-2-methyl-1-(1H-1,2,3-triazol-4-yl)propan-1-ol]
"up-stream" steroids change [1]: limited increase
ACTH change [1]: modest ACTH increase
androgen change [1]: modest androgen decline
cortisol change [1]: modest cortisol decrease
increase in progesterone [2]: lack of clinically relevant increase
